The test system of test [1] is SARS-CoV-2 variants. The settings on record: cited from earlier work.
Test [2] concerns SARS-CoV-2 variants. The experiment in a line: microbe, parasite or virus in culture.
Setting [3] is: Severe acute respiratory syndrome coronavirus 2, read-out: highest EC50 reported in the literature, corrected for plasma protein binding.
[4] abbreviates: Severe acute respiratory syndrome coronavirus 2, read-out: highest EC90 reported in the literature, corrected for plasma protein binding.
The mark [5] stands for this setting: Severe acute respiratory syndrome coronavirus 2, read-out: lowest EC50 reported in the literature, corrected for plasma protein binding.
The mark [6] stands for this setting: Severe acute respiratory syndrome coronavirus 2, read-out: lowest EC90 reported in the literature, corrected for plasma protein binding.

Structures are written as SMILES. Where two headings read alike, the source gives them in different places.

The term EC50 denotes the midpoint of the concentration-response curve. As a reminder, the EC90 is the concentration needed for an effect of 90%.

Consider `CCC(CC)COC(=O)[C@H](C)N[P@](=O)(OC[C@H]1O[C@@](C#N)(c2ccc3c(N)ncnn23)[C@H](O)[C@@H]1O)Oc1ccccc1` [Remdesivir, reference compound], for which the half-maximal effective concentration (EC50) is 1 to 1700 nM in test [1], 14200 nM in test [2] (setting [3]) and 8 nM in test [2] (setting [5]). For the same molecule, the concentration for an effect of 90% (EC90) in test [1] is 22 to 3100 nM; in test [2] (setting [4]), 25800 nM; in test [2] (setting [6]), 180 nM.

With `N#C[C@@]1(c2ccc3c(N)ncnn23)O[C@H](CO)[C@@H](O)[C@H]1O` [GS-441524], the results for the EC50 in test [1], in test [2] (setting [3]) and in test [2] (setting [5]) were 80 to 5600 nM, 5710 nM and 80 nM, respectively. For the same molecule, the EC90 in test [1] was 710 to 3900 nM; in test [2] (setting [4]), 3980 nM; in test [2] (setting [6]), 720 nM.

(Values after PMC12064607 (Clinical Pharmacokinetics, 2025).)
